Source: patent US20250129370A1, “METHOD FOR REDUCING HEPATIC TRIGLYCERIDES” (ADAERATA, LIMITED PARTNERSHIP, priority 2022, published 2025)

Key:
PCSK7 mRNA = PCSK7 mRNA qPCR after miRNA overexpression in Huh7 cells; format: cell-based, human; conditions: Huh7, 48 hours following transfection, vs mock vector
Method: RNA was isolated from the cells with the TRIzol™ Reagent (Invitrogen, USA) according to the manufacturer's instructions. The RNA samples were treated with RNase-free DNase I (Fermentas, USA) to eliminate any possible DNA contamination. Reverse transcription was performed using the PrimeScript™ First Strand cDNA Synthesis Kit (Takara, Japan) following the manufacturer's protocol. Briefly, one unit of the DNase I enzyme, 1 μL of a buffer, and 1 μg of total RNA were incubated for 30 minutes at 37° C. Then, 1 μL of 50 mM EDTA was added for enzyme inactivation and incubated at 65° C. for 10 minutes. Subsequently, 5 μL of DNase-treated RNA was added to the mix of 0.5 μL of the reverse-transcriptase enzyme, 2 μL of the reverse-transcriptase buffer, and 1 μL of a random hexamer and incubated for 15 minutes at 37° C., followed by 5 seconds at 85° C. for enzyme inactivation. Stem-loop RT-qPCR method was applied for evaluating the expression of miRNAs (Kramer, 2011). […]
All the reactions were repeated in duplicates. Next, melt curves were analyzed, with the mean threshold cycles used for further analyses. The relative expressions of the miRNAs and PCSK7 to RNU48 small nuclear RNA and/or GAPDH and β2m were calculated, respectively, via the 2-ΔΔCt method. […]

human PCSK9 = assay: Western blot of PCSK9 protein in Huh7 cells co-transfected with miRNA vectors; format: cell-based; conditions: Huh7, selectivity control
Method: Western blot analysis was conducted to determine whether miR-125a-5p affected the functional activity of […] PC7 in Huh7 cells. A wild-type human PC7-overexpressing vector was co-transfected with pre-miR-125a-5p and pre-miR-224-5p-overexpressing plasmids in Huh7 cells. […] As control, a human PCSK9-overexpressing vector was co-transfected with miR-125a-5p and miR-224-5p vectors in Huh7 cells, whereby these miRNAs had no effect on the expression level of PCSK9 protein (not shown).

human PC7 = assay: Western blot of overexpressed PC7 protein in Huh7 cells co-transfected with miRNA vectors; format: cell-based
Method: In the next step, the effect of miR-125a-5p on PC7 function was determined. First, the miR-125a-5p-overexpressing vector and its related mock plasmids were co-transfected with the pIRES vector (Invitrogen, USA), containing the full length of cDNA encoding the PCSK7 mRNA with the complete 3′-UTR in Huh7 cells. The western blot analysis was performed 48 hours after transfection. Thereafter, the impact of miR-125a-5p on the enzymatic function of PC7 was assessed by co-transfecting Huh7 cells with the miR-125a-5p-overexpressing vector, with that coding for the full length of PCSK7, and a plasmid encoding hTfR1 (Guillemot et al., 2013; Durand et al., 2020). […]
Subsequently, proteins were isolated with an ice-cold RIPA buffer (1×), comprising 50 mM of Tris hydrochloride (pH 8), 150 mM of sodium chloride, 0.1% sodium dodecyl sulfate, 1% Nonidet P40, 0.25% sodium deoxycholate, and a cocktail of protease inhibitors (Roche, Oakville, ON, Canada). […] Both PC7 and TfR1 were C-terminally tagged with V5 and detected with a V5-monoclonal antibody (Invitrogen) and membranes were incubated with appropriate primary and secondary antibodies, as reported (Guillemot et al., 2013). Subsequently, immunoreactive bands (the signal) were visualized with an enhanced chemiluminescent reaction kit (Bio-Rad, USA) and recorded via chemiluminescence. […]

miR-125a-5p: miRNA targeting PCSK7 3′-UTR and exons 14 and 15, overexpressed from pEGFP-C1 precursor vector (UCCCUGAGACCCUUUAACCUGUGA; miRNA expressed from a pEGFP-C1 precursor vector, further chemistry not given here)
effect on expression of PCSK7 mRNA (PCSK7 mRNA): did not reach statistical significance
expression level of PCSK9 protein (human PCSK9): no effect
fall of overexpressed PC7 protein levels (human PC7; Huh7, 48 hours post-transfection, vs mock (pEGFP-C1) and miR-224-5p controls): ~80%
decrease of PC7 protein levels (human PC7; Huh7, PC7:miR-125a-5p DNA ratios 1:2, 1:3 and 1:5, all three ratios): > 80%
